Some test systems named below: A549 NSCLC; COLO 205 colon; DMS 114 small cell lung; HCT-15 colon; HOP-92 NSCLC; M19-MEL melanoma; MOLT-4 leukemia; OVCAR-4 ovarian; OVCAR-5 ovarian; SR leukemia.
Holding throughout (assay): inhibition of tumour cell growth, NCI panel, 48 h

This is an account of results in PubChem BioAssay (NCI).

Values joined by “and” are separate entries in the source; they are usually repeats but may differ in a detail not shown here. Equal entries are not always repeated.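 Where inhibition never reached the appropriate level, the endpoint shown equals the highest concentration tested. Otherwise, values were interpolated linearly from a five-concentration, 48-hour dose response in 96-well plates. Here, GI50 denotes the concentration required for 50% inhibition of growth. TGI: total growth inhibition.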

As for `C#Cc1c(C)c(/C=C/C(C)=C\C(=O)OC)n(C)c1C`, the TGI with A549 NSCLC, in the experiment with COLO 205 colon, in the experiment with DMS 114 small cell lung, in the experiment with HCT-15 colon, in the experiment with HOP-92 NSCLC and in the experiment with M19-MEL melanoma was over 100 µM in each case. The TGI in the experiment on MOLT-4 leukemia, in the experiment with OVCAR-4 ovarian and in the experiment with OVCAR-5 ovarian was over 100 µM in each case.

Regarding `Nc1nc(N)c(CCCCc2ccc([N+](=O)[O-])cc2)c(N)n1`, the TGI in the experiment with A549 NSCLC, with COLO 205 colon, in the experiment with DMS 114 small cell lung, in the experiment on HCT-15 colon, in the experiment on HOP-92 NSCLC and in the experiment on M19-MEL melanoma was over 100 µM in each case. Moreover, the TGI in the experiment with MOLT-4 leukemia, with OVCAR-4 ovarian, in the experiment with OVCAR-5 ovarian and in the experiment with SR leukemia was over 100 µM throughout.

On to `CC(=O)O[C@H]1CSC[C@@H](OC(C)=O)C1[N+](=O)[O-]` (some centres undefined), for which the TGI with A549 NSCLC is over 100 µM; in the experiment with COLO 205 colon it was 49.1 µM; in the experiment on DMS 114 small cell lung it was over 100 µM; in the experiment with HCT-15 colon, 88.9 µM; in the experiment with HOP-92 NSCLC, 39.7 µM; in the experiment on M19-MEL melanoma, over 100 µM. In addition, the TGI in the experiment with MOLT-4 leukemia is 78.7 µM; with OVCAR-4 ovarian, over 100 µM; with OVCAR-5 ovarian, over 100 µM.

Consider `O=C(CC1(O)C(=O)Nc2ccccc21)c1cccc(O)c1` (centres undefined), for which the TGI in the experiment on A549 NSCLC, with COLO 205 colon, in the experiment with DMS 114 small cell lung, in the experiment with HCT-15 colon, in the experiment on HOP-92 NSCLC and with M19-MEL melanoma was over 100 µM each time. The TGI in the experiment on MOLT-4 leukemia, with OVCAR-4 ovarian and with OVCAR-5 ovarian was over 100 µM throughout.

For `NN=C1/C(=C\c2ccccc2)CCC/C1=C/c1ccccc1`, the TGI in the experiment on A549 NSCLC is over 100 µM; in the experiment on COLO 205 colon, 71.4 µM; with DMS 114 small cell lung it was 75.1 µM; in the experiment with HCT-15 colon it was over 100 µM; in the experiment on HOP-92 NSCLC, 76.7 µM; in the experiment with M19-MEL melanoma it was over 100 µM. Further, the TGI in the experiment with MOLT-4 leukemia was 37.4 µM; in the experiment with OVCAR-4 ovarian it was over 100 µM; in the experiment with OVCAR-5 ovarian, over 100 µM.

For `CCOC(=O)C1=C(C)N(NC(=O)Nc2ccccc2)C2(N)N(NC(=O)Nc3ccccc3)C(C)=C(C(=O)OCC)C12C#N` (centres undefined), the TGI is over 100 µM in the experiment with A549 NSCLC; 32.6 µM in the experiment with COLO 205 colon; 32.9 µM in the experiment on DMS 114 small cell lung; 37.1 µM in the experiment on HCT-15 colon; 39.4 µM in the experiment on HOP-92 NSCLC; 31.6 µM with M19-MEL melanoma. Besides, the TGI is 56.8 µM in the experiment on MOLT-4 leukemia, 31.5 µM with OVCAR-4 ovarian and 32.4 µM with OVCAR-5 ovarian.

On to `CCNC(=O)O/N=C1\CCC2[C@@H]3CC=C4C[C@@H](OC(=O)NCC)CC[C@]4(C)C3CC[C@]12C` (some centres undefined), for which the TGI in the experiment on A549 NSCLC turned out to be 13.5 µM; in the experiment with COLO 205 colon, 1.73 µM; with DMS 114 small cell lung, 1.82 µM; in the experiment with HCT-15 colon, 12.5 µM; in the experiment with HOP-92 NSCLC it was 13.3 µM; in the experiment on M19-MEL melanoma it was 4.79 µM. Besides, the TGI came to 3.2 µM in the experiment with MOLT-4 leukemia, 5.19 µM in the experiment with OVCAR-4 ovarian and 17.1 µM in the experiment with OVCAR-5 ovarian.

As for `CSCSCC(CO)NC(=O)/C=C/c1c(C)[nH]c(=O)[nH]c1=O` (centres undefined), the TGI in the experiment with A549 NSCLC, with DMS 114 small cell lung, in the experiment with HCT-15 colon, with HOP-92 NSCLC, with M19-MEL melanoma and with MOLT-4 leukemia was over 100 µM in each case. Further, the TGI in the experiment with OVCAR-4 ovarian, in the experiment on OVCAR-5 ovarian and in the experiment on SR leukemia was over 100 µM in each case.

Consider `N#Cc1c(N)oc2cc3c(C#N)c(N)oc3cc12`, for which the TGI in the experiment on A549 NSCLC, in the experiment on COLO 205 colon, with DMS 114 small cell lung, with HCT-15 colon, in the experiment with HOP-92 NSCLC and in the experiment with M19-MEL melanoma was over 100 µM throughout. The TGI in the experiment on MOLT-4 leukemia, with OVCAR-4 ovarian and in the experiment with OVCAR-5 ovarian was over 100 µM each time.

In the case of `COc1cc(C2c3cc4c(cc3[C@@H](Nc3ccc(F)cc3)C3COC(=O)[C@H]23)OCO4)cc(OC)c1O` (some centres undefined), the GI50 in the experiment on A549 NSCLC is 0.264 µM; in the experiment on DMS 114 small cell lung, 0.997 µM; in the experiment on MOLT-4 leukemia, 0.0657 µM; in the experiment on SR leukemia it was 0.0567 µM. For the same compound, the TGI in the experiment on A549 NSCLC amounted to 5.17 µM; in the experiment on COLO 205 colon, 15.6 µM; with DMS 114 small cell lung, 9.63 µM; in the experiment on HCT-15 colon, 26.1 µM; in the experiment with HOP-92 NSCLC, 24.8 µM; in the experiment on M19-MEL melanoma it was 42.8 µM. Moreover, the TGI was 0.821 µM and 2.26 µM in the experiment with MOLT-4 leukemia; 49.2 µM in the experiment with OVCAR-4 ovarian; 37 µM with OVCAR-5 ovarian; 0.612 µM and 4.27 µM with SR leukemia.

Regarding `CN(C(=O)C12C3C4C1C1C2C3C41C#N)C(C)(C)C` (centres undefined), the TGI in the experiment on A549 NSCLC, with COLO 205 colon, in the experiment with DMS 114 small cell lung, in the experiment on M19-MEL melanoma, in the experiment with MOLT-4 leukemia and with OVCAR-4 ovarian was over 100 µM throughout. Also, the TGI in the experiment on OVCAR-5 ovarian was over 100 µM.

For `C(=C\c1ccc2ccccc2c1Nc1ccccc1)/c1ccccc1`, the TGI in the experiment on A549 NSCLC is over 100 µM; in the experiment with COLO 205 colon, over 100 µM; in the experiment on DMS 114 small cell lung, over 100 µM; in the experiment with HCT-15 colon, over 100 µM; in the experiment with HOP-92 NSCLC, 45.5 µM; in the experiment with M19-MEL melanoma, over 100 µM. Besides, the TGI in the experiment with MOLT-4 leukemia was 36.9 µM; with OVCAR-4 ovarian it was 23.2 µM; in the experiment with OVCAR-5 ovarian it was over 100 µM; with SR leukemia, 33.6 µM.

In the case of `Nc1ncc(CN2CCCC2)c(-c2ccccc2O)n1`, the TGI with A549 NSCLC, with COLO 205 colon, in the experiment on DMS 114 small cell lung, with HCT-15 colon, in the experiment on HOP-92 NSCLC and in the experiment with M19-MEL melanoma was over 750 µM in each case. In addition, the TGI in the experiment with MOLT-4 leukemia, in the experiment on OVCAR-4 ovarian, in the experiment on OVCAR-5 ovarian and in the experiment with SR leukemia was over 750 µM each time.

As to `O=C1c2c(c3c4ccccc4n(CC4CO4)c3c3[nH]c4ccccc4c23)C(=O)N1Cc1ccccc1` (centres undefined), the TGI in the experiment with A549 NSCLC, in the experiment on DMS 114 small cell lung, in the experiment with HCT-15 colon, in the experiment with HOP-92 NSCLC, with M19-MEL melanoma and in the experiment on MOLT-4 leukemia was over 100 µM in each case. For the same compound, the TGI with OVCAR-4 ovarian, in the experiment with OVCAR-5 ovarian and in the experiment on SR leukemia was over 100 µM in each case.

Turning to `O=C1N(c2ccc(Cl)cc2)C(=O)C2(SC=NN2Cc2ccccc2)N1c1ccc(Cl)cc1` (centres undefined), the TGI with A549 NSCLC, with DMS 114 small cell lung, with HOP-92 NSCLC, in the experiment on M19-MEL melanoma, in the experiment with MOLT-4 leukemia and with OVCAR-4 ovarian was over 100 µM in each case. This compound also gave a TGI in the experiment with SR leukemia of over 100 µM.

For `COc1cc2c(cc1O)CCN[C@@]21CS[C@H]2c3c(OC(C)=O)c(C)c4c(c3C(COC1=O)N1C2C2NC(Cc3cc(C)c(OC)c(O)c32)[C@@H]1O)OCO4` (some centres undefined), the GI50 with A549 NSCLC is 0.000368 ng/mL; in the experiment with COLO 205 colon, 4.5 ng/mL; in the experiment with DMS 114 small cell lung, 4.5 ng/mL; in the experiment with HCT-15 colon it was 0.00461 ng/mL and 4.5 ng/mL; in the experiment with HOP-92 NSCLC, 0.000135 ng/mL; in the experiment with M19-MEL melanoma, 4.5 ng/mL. Moreover, the GI50 in the experiment with MOLT-4 leukemia, in the experiment on OVCAR-4 ovarian and in the experiment on SR leukemia was 4.5 ng/mL throughout. The TGI with A549 NSCLC was 10.4 µM; with COLO 205 colon, < 10 nM and 1.9e-07 µg/mL and 0.0045 µg/mL; with DMS 114 small cell lung, 4.5 ng/mL; in the experiment on HOP-92 NSCLC, 9.17 µM and 5.9e-07 µg/mL; with M19-MEL melanoma, 4.5 ng/mL; with OVCAR-4 ovarian, < 10 nM and 0.0045 µg/mL. Moreover, the TGI in the experiment with OVCAR-5 ovarian is 14.6 µM and 7.3e-07 µg/mL and 0.0045 µg/mL.

Take `CCn1c(=O)nc2n(-c3ccc(SC)cc3)c3ccccc3nc-2c1=O`: the TGI in the experiment with A549 NSCLC, with COLO 205 colon, in the experiment with DMS 114 small cell lung, with HCT-15 colon, with HOP-92 NSCLC and in the experiment with M19-MEL melanoma was over 100 µM each time. In addition, the TGI in the experiment on MOLT-4 leukemia, in the experiment on OVCAR-4 ovarian and in the experiment on OVCAR-5 ovarian was over 100 µM in each case.

Regarding `C=C1C(C)C2C(Cc3ccccc3)NC(=O)C23C(OC(C)=O)C=CC(C)(O)C(=O)C(C)C/C=C/C3C1O` (centres undefined), the GI50 is 0.241 µM in the experiment on A549 NSCLC; 0.0825 µM in the experiment with COLO 205 colon; 11.1 µM in the experiment on DMS 114 small cell lung; over 500 µM with HCT-15 colon; 0.171 µM with HOP-92 NSCLC; 57.3 µM in the experiment with M19-MEL melanoma. The GI50 in the experiment with MOLT-4 leukemia is 17.9 µM; in the experiment with OVCAR-4 ovarian, 10.4 µM. Besides, the TGI in the experiment on A549 NSCLC is over 500 µM; in the experiment on COLO 205 colon, over 500 µM; in the experiment with DMS 114 small cell lung it was 65.6 µM and > 500 µM; in the experiment on HCT-15 colon it was over 500 µM; in the experiment on HOP-92 NSCLC, 2.45 µM and 1.21 µM; with M19-MEL melanoma, 93.4 µM and > 500 µM. Further, the TGI with MOLT-4 leukemia is 78.3 µM and > 500 µM; with OVCAR-4 ovarian, 99.8 µM and > 500 µM; with OVCAR-5 ovarian, over 500 µM; in the experiment with SR leukemia, over 289 µM.

`COc1cc([C@@H]2c3cc4c(cc3[C@@H](OC3OC5COC(C)OC5C(O)C3O)[C@H]3COC(=O)[C@H]23)OCO4)cc(OC)c1O` (some centres undefined): the TGI in the experiment on A549 NSCLC is 61.4 µM and 108 µM; with DMS 114 small cell lung, 24.6 µM and 66.8 µM; in the experiment with HCT-15 colon it was 285 µM and 169 µM; with HOP-92 NSCLC it was 37.9 µM and 114 µM; in the experiment on M19-MEL melanoma, 50.3 µM and 332 µM; in the experiment with OVCAR-4 ovarian it was 124 µM and 500 µM and 292 µM. Also, the TGI in the experiment with OVCAR-5 ovarian was 64.2 µM and 121 µM and 169 µM; in the experiment on SR leukemia, 84.8 µM and 26.1 µM and 13.3 µM.

For `CCOC(=O)C(=O)CC(=O)C(Br)C(Br)c1ccc(Cl)cc1` (centres undefined), the TGI in the experiment with A549 NSCLC was over 100 µM; with COLO 205 colon, 53.5 µM; with DMS 114 small cell lung, over 100 µM; in the experiment on HCT-15 colon it was over 100 µM; in the experiment with HOP-92 NSCLC it was 59.6 µM; with M19-MEL melanoma, 52.4 µM. In addition, the TGI in the experiment with MOLT-4 leukemia is 53 µM; in the experiment with OVCAR-4 ovarian it was over 100 µM; with OVCAR-5 ovarian, over 100 µM.
